According to patent publication US9765092B2, “Tricyclic piperidine compounds” (ACTELION PHARMACEUTICALS LTD, priority 2013, dated 2017):

Target: human TPH1 (Homo sapiens (Human), UniProt P17752)
Assay: Biochemical in vitro assay using fluorescence readout (TPH1 inhibition)
Settings: human TPH1, fluorescence readout

human TPH1, sequence (P17752 whole entry): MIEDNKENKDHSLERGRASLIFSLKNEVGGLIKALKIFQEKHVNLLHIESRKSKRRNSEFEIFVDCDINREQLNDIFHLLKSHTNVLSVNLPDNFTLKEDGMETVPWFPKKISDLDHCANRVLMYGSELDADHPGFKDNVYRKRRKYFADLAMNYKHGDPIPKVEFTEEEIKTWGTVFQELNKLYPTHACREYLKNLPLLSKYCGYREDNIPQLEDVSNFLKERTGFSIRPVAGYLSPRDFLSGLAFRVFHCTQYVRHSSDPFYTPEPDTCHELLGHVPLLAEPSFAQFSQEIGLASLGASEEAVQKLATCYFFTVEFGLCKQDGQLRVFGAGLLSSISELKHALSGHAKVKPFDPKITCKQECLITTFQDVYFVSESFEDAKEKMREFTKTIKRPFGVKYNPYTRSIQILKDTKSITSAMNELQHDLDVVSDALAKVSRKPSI

| SMILES | IC50 |
| --- | --- |
| Cc1nn2c3c(nc2s1)CCN(C(=O)COc1ccc(C(F)(F)F)nc1Cl)C3c1sc(C(=O)N(C)C)cc1F (stereo not drawn) [Example 1.24.2, 5-(6-(2-((2-chloro-6-(trifluoromethyl)pyridin-3-yl)oxy)acetyl)-2-methyl-5,6,7,8-tetrahydro-[1,3,4]thiadiazolo [2′,3′:2,3]imidazo[4,5-c]pyridin-5-yl)-4-fluoro-N,N-dimethylthiophene-2-carboxamide] | 22 nM |
| Cc1nn2c3c(nc2s1)CCN(C(=O)COc1ccc(C(F)(F)F)cc1Cl)C3c1sc(C(=O)N(C)C)cc1F (stereo not drawn) [Example 1.24.3, 5-(6-(2-(2-chloro-4-(trifluoromethyl)phenoxy)acetyl)-2-methyl-5,6,7,8-tetrahydro-[1,3,4]thiadiazolo[2′,3′:2,3]imidazo[4,5-c]pyridin-5-yl)-4-fluoro-N,N-dimethylthiophene-2-carboxamide] | 8 nM |
| Cc1nn2c3c(nc2s1)CCN(C(=O)COc1ccc(C#N)nc1Cl)C3c1sc(C(=O)N(C)C)cc1F (stereo not drawn) [Example 1.24.4, 5-(6-(2-((2-chloro-6-cyanopyridin-3-yl)oxy)acetyl)-2-methyl-5,6,7,8-tetrahydro-[1,3,4]thiadiazolo[2′,3′:2,3]imidazo[4,5-c]pyridin-5-yl)-4-fluoro-N,N-dimethylthiophene-2-carboxamide] | 46 nM |
| Cc1nn2c3c(nc2s1)CCN(C(=O)COc1cccnc1Cl)C3c1sc(C(=O)N(C)C)cc1F (stereo not drawn) [Example 1.24.5, 5-(6-(2-((2-chloropyridin-3-yl)oxy)acetyl)-2-methyl-5,6,7,8-tetrahydro-[1,3,4]thiadiazolo[2′,3′:2,3]imidazo[4,5-c]pyridin-5-yl)-4-fluoro-N,N-dimethylthiophene-2-carboxamide] | 64 nM |
| Cc1nn2c3c(nc2s1)CCN(C(=O)COc1ccc(N2CC(F)(F)C2)nc1Cl)C3c1sc(C(=O)N(C)C)cc1F (stereo not drawn) [Example 1.24.6, 5-(6-(2-((2-chloro-6-(3,3-difluoroazetidin-1-yl)pyridin-3-yl)oxy)acetyl)-2-methyl-5,6,7,8-tetrahydro-[1,3,4]thiadiazolo [2′,3′:2,3]imidazo[4,5-c]pyridin-5-yl)-4-fluoro-N,N-dimethylthiophene-2-carboxamide] | 5 nM |
| Cc1nn2c3c(nc2s1)CCN(C(=O)COc1ccc(C(=O)N(C)C)nc1Cl)C3c1sc(C(=O)N(C)C)cc1F (stereo not drawn) [Example 1.24.7, 6-chloro-5-(2-(5-(5-(dimethylcarbamoyl)-3-fluorothiophen-2-yl)-2-methyl-7,8-dihydro-[1,3,4]thiadiazolo[2′,3′:2,3]imidazo[4,5-c]pyridin-6(5H)-yl)-2-oxoethoxy)-N,N-dimethylpicolinamide] | 5 nM |
| Cc1nn2c3c(nc2s1)CCN(C(=O)COc1ccc(C#N)cc1Cl)C3c1sc(C(=O)N(C)C)cc1F (stereo not drawn) [Example 1.24.8, 5-(6-(2-(2-chloro-4-cyanophenoxy)acetyl)-2-methyl-5,6,7,8-tetrahydro-[1,3,4]thiadiazolo[2′,3′:2,3]imidazo[4,5-c]pyridin-5-yl)-4-fluoro-N,N-dimethylthiophene-2-carboxamide] | 14 nM |
| Cc1nn2c3c(nc2s1)CCN(C(=O)COc1ccc(NS(C)(=O)=O)nc1Cl)C3c1sc(C(=O)N(C)C)cc1F (stereo not drawn) [Example 1.24.9, 5-(6-(2-((2-chloro-6-(methylsulfonamido)pyridin-3-yl)oxy)acetyl)-2-methyl-5,6,7,8-tetrahydro-[1,3,4]thiadiazolo [2′,3′:2,3]imidazo[4,5-c]pyridin-5-yl)-4-fluoro-N,N-dimethylthiophene-2-carboxamide] | 6 nM |
| CNC(=O)c1ccc(OCC(=O)N2CCc3nc4sc(C)nn4c3C2c2sc(C(=O)N(C)C)cc2F)c(Cl)n1 (stereo not drawn) [Example 1.24.10, 6-chloro-5-(2-(5-(5-(dimethylcarbamoyl)-3-fluoro-thiophen-2-yl)-2-methyl-7,8-dihydro-[1,3,4]thiadiazolo[2′,3′:2,3]imidazo[4,5-c]pyridin-6(5H)-yl)-2-oxoethoxy)-N-methylpicolinamide] | 20 nM |
| Cc1nn2c3c(nc2s1)CCN(C(=O)COc1ccc(C(=O)N(C)C)nc1Cl)[C@H]3c1sc(C(=O)N(C)C)cc1F [Example 1.24.11] | 4 nM |
| CNC(=O)c1cc(F)c(C2c3c(nc4sc(C)nn34)CCN2C(=O)COc2ccc(N3CCOCC3)nc2Cl)s1 (stereo not drawn) [Example 1.25.1, 5-(6-(2-((2-chloro-6-morpholinopyridin-3-yl)oxy)acetyl)-2-methyl-5,6,7,8-tetrahydro-[1,3,4]thiadiazolo[2′,3′:2,3]imidazo[4,5-c]pyridin-5-yl)-4-fluoro-N-methylthiophene-2-carboxamide] | 5 nM |
| CNC(=O)c1cc(F)c(C2c3c(nc4sc(C)nn34)CCN2C(=O)COc2ccc(C(F)(F)F)cc2Cl)s1 (stereo not drawn) [Example 1.25.2, 5-(6-(2-(2-chloro-4-(trifluoromethyl)phenoxy)acetyl)-2-methyl-5,6,7,8-tetrahydro-[1,3,4]thiadiazolo[2′,3′:2,3]imidazo[4,5-c]pyridin-5-yl)-4-fluoro-N-methylthiophene-2-carboxamide] | 10 nM |
| CNC(=O)c1cc(F)c(C2c3c(nc4sc(C)nn34)CCN2C(=O)COc2ccc(C(F)(F)F)nc2Cl)s1 (stereo not drawn) [Example 1.25.3, 5-(6-(2-((2-chloro-6-(trifluoromethyl)pyridin-3-yl)oxy)acetyl)-2-methyl-5,6,7,8-tetrahydro-[1,3,4]thiadiazolo [2′,3′:2,3]imidazo[4,5-c]pyridin-5-yl)-4-fluoro-N-methylthiophene-2-carboxamide] | 35 nM |
| CNC(=O)c1cc(F)c(C2c3c(nc4sc(C)nn34)CCN2C(=O)COc2ccc(C(=O)N(C)C)nc2Cl)s1 (stereo not drawn) [Example 1.25.4, 6-chloro-5-(2-(5-(3-fluoro-5-(methylcarbamoyl)thiophen-2-yl)-2-methyl-7,8-dihydro-[1,3,4]thiadiazolo[2′,3′:2,3]imidazo[4,5-c]pyridin-6(5H)-yl)-2-oxoethoxy)-N,N-dimethylpicolinamide] | 6 nM |
| CNC(=O)c1cc(F)c(C2c3c(nc4sc(C)nn34)CCN2C(=O)COc2ccc(N3CC(F)(F)C3)nc2Cl)s1 (stereo not drawn) [Example 1.25.5, 5-(6-(2-((2-chloro-6-(3,3-difluoroazetidin-1-yl)pyridin-3-yl)oxy)acetyl)-2-methyl-5,6,7,8-tetrahydro-[1,3,4]thiadiazolo [2′,3′:2,3]imidazo[4,5-c]pyridin-5-yl)-4-fluoro-N-methylthiophene-2-carboxamide] | 7 nM |
| CNC(=O)c1cc(F)c(C2c3c(nc4sc(C)nn34)CCN2C(=O)COc2ccc(C(N)=O)nc2Cl)s1 (stereo not drawn) [Example 1.25.6, 6-chloro-5-(2-(5-(3-fluoro-5-(methylcarbamoyl)thiophen-2-yl)-2-methyl-7,8-dihydro-[1,3,4]thiadiazolo[2′,3′:2,3]imidazo[4,5-c]pyridin-6(5H)-yl)-2-oxoethoxy)picolinamide] | 8 nM |
| CNC(=O)c1cc(F)c(C2c3c(nc4sc(C)nn34)CCN2C(=O)COc2ccc(NS(C)(=O)=O)nc2Cl)s1 (stereo not drawn) [Example 1.25.7, 5-(6-(2-((2-chloro-6-(methylsulfonamido)pyridin-3-yl)oxy)acetyl)-2-methyl-5,6,7,8-tetrahydro-[1,3,4]thiadiazolo [2′,3′:2,3]imidazo[4,5-c]pyridin-5-yl)-4-fluoro-N-methylthiophene-2-carboxamide] | 7 nM |
| CNC(=O)c1cc(F)c(C2c3c(nc4sc(C)nn34)CCN2C(=O)COc2ccc(C#N)cc2Cl)s1 (stereo not drawn) [Example 1.25.8, 5-(6-(2-(2-chloro-4-cyanophenoxy)acetyl)-2-methyl-5,6,7,8-tetrahydro-[1,3,4]thiadiazolo[2′,3′:2,3]imidazo[4,5-c]pyridin-5-yl)-4-fluoro-N-methylthiophene-2-carboxamide] | 43 nM |
| CNC(=O)c1cc(F)c(C2c3c(nc4sc(C)nn34)CCN2C(=O)COc2cc(F)cnc2Cl)s1 (stereo not drawn) [Example 1.25.9, 5-(6-(2-((2-chloro-5-fluoropyridin-3-yl)oxy)acetyl)-2-methyl-5,6,7,8-tetrahydro-[1,3,4]thiadiazolo[2′,3′:2,3]imidazo[4,5-c]pyridin-5-yl)-4-fluoro-N-methylthiophene-2-carboxamide] | 47 nM |
| COC(=O)c1ccc(C2c3c(nc4sc(C)nn34)CCN2C(=O)COc2ccc(N3CCOCC3)nc2Cl)o1 (stereo not drawn) [Example 1.26.1, Methyl 5-(6-(2-((2-chloro-6-morpholinopyridin-3-yl)oxy)acetyl)-2-methyl-5,6,7,8-tetrahydro-[1,3,4]thiadiazolo [2′,3′:2,3]imidazo[4,5-c]pyridin-5-yl)furan-2-carboxylate] | 10 nM |
| CCOC(=O)c1csc(C2c3c(nc4sc(C)nn34)CCN2C(=O)COc2ccc(N3CCOCC3)nc2Cl)n1 (stereo not drawn) [Example 1.27.1, ethyl 2-(6-(2-((2-chloro-6-morpholinopyridin-3-yl)oxy)acetyl)-2-methyl-5,6,7,8-tetrahydro-[1,3,4]thiadiazolo[2′,3′:2,3]imidazo[4,5-c]pyridin-5-yl)thiazole-4-carboxylate] | 7 nM |
| CCOC(=O)c1csc(C2c3c(nc4sc(C)nn34)CCN2C(=O)COc2ccc(C(F)(F)F)nc2Cl)n1 (stereo not drawn) [Example 1.27.2, Ethyl 2-(6-(2-((2-chloro-6-(trifluoromethyl)pyridin-3-yl)oxy)acetyl)-2-methyl-5,6,7,8-tetrahydro-[1,3,4]thiadiazolo [2′,3′:2,3]imidazo[4,5-c]pyridin-5-yl)thiazole-4-carboxylate] | 500 nM |
| CCOC(=O)c1csc(C2c3c(nc4sc(C)nn34)CCN2C(=O)COc2ccc(C(F)(F)F)cc2Cl)n1 (stereo not drawn) [Example 1.27.3, ethyl 2-(6-(2-(2-chloro-4-(trifluoromethyl)phenoxy)acetyl)-2-methyl-5,6,7,8-tetrahydro-[1,3,4]thiadiazolo[2′,3′:2,3]imidazo[4,5-c]pyridin-5-yl)thiazole-4-carboxylate] | 245 nM |
| COC(=O)c1cnc(C2c3c(nc4sc(C)nn34)CCN2C(=O)COc2ccc(N3CCOCC3)nc2Cl)s1 (stereo not drawn) [Example 1.28.1, Methyl 2-(6-(2-((2-chloro-6-morpholinopyridin-3-yl)oxy)acetyl)-2-methyl-5,6,7,8-tetrahydro-[1,3,4]thiadiazolo [2′,3′:2,3]imidazo[4,5-c]pyridin-5-yl)thiazole-5-carboxylate] | 7 nM |
